Columns and labels:
Assay type in all cases: biochemical
NDR2 = target: T1, NDR2 (Homo sapiens, UniProt Q9Y2H1); assay: mobility shift assay
T1 construct: purchased Carna Biosciences

SGK3 = target: T2, SGK3 (Homo sapiens, UniProt Q96BR1); assay: mobility shift assay
T2 construct: purchased Carna Biosciences

AKT3 = target: T3, AKT3 (Homo sapiens, UniProt Q9Y243); assay: mobility shift assay
T3 construct: purchased Carna Biosciences

p38α = target: T4, p38α (Homo sapiens, UniProt Q16539); assay: mobility shift assay
T4 construct: purchased Carna Biosciences

p38B = target: T5, p38B (Homo sapiens, UniProt Q15759); assay: mobility shift assay
T5 construct: purchased Carna Biosciences

MLK2_Cascade = target: T6, MLK2_Cascade (Homo sapiens, UniProt Q02779); assay: mobility shift assay
T6 construct: purchased Carna Biosciences

CK1γ2 = target: T7, CK1γ2 (Homo sapiens, UniProt P78368); assay: mobility shift assay
T7 construct: purchased Carna Biosciences

RSK4 = target: T8, RSK4 (Homo sapiens, UniProt Q9UK32); assay: mobility shift assay
T8 construct: purchased Carna Biosciences

MST 4 = target: T9, MST 4 (Homo sapiens, UniProt Q9P289); assay: mobility shift assay
T9 construct: purchased Carna Biosciences

KIT(T670I) = target: T10, KIT(T670I) (Homo sapiens, UniProt P10721, T670I); assay: mobility shift assay
T10 construct: purchased Carna Biosciences

MSK2 = target: T11, MSK2 (Homo sapiens, UniProt O75676); assay: mobility shift assay
T11 construct: purchased Carna Biosciences

MNK = assay: mobility shift assay; details: 10 μM
CDK3/CycE1 = target: T12, CDK3/CycE1 (Homo sapiens, UniProt Q00526); assay: mobility shift assay
T12 construct: purchased Carna Biosciences

MAP3K4_Cascade = assay: mobility shift assay; details: 10 μM
EPHA8 = target: T13, EPHA8 (Homo sapiens, UniProt P29322); assay: mobility shift assay
T13 construct: purchased Carna Biosciences

ALK(F1174L) = target: T14, ALK(F1174L) (Homo sapiens, UniProt Q9UM73, F1174L); assay: mobility shift assay
T14 construct: purchased Carna Biosciences

PKACα = target: T15, PKACα (Homo sapiens, UniProt P17612); assay: mobility shift assay
T15 construct: purchased Carna Biosciences

DDR2 = target: T16, DDR2 (Homo sapiens, UniProt Q16832); assay: mobility shift assay
T16 construct: purchased Carna Biosciences

NEK6 = target: T17, NEK6 (Homo sapiens, UniProt Q9HC98); assay: mobility shift assay
T17 construct: purchased Carna Biosciences

PDGF Ru(DB42V) = target: T18, PDGF Ru(DB42V) (Homo sapiens, UniProt P16234, D842V); assay: mobility shift assay
T18 construct: purchased Carna Biosciences

HER4 = target: T19, HER4 (Homo sapiens, UniProt Q15303); assay: mobility shift assay
T19 construct: purchased Carna Biosciences

PIM 1 = target: T20, PIM 1 (Homo sapiens, UniProt P11309); assay: mobility shift assay
T20 construct: purchased Carna Biosciences

PEK = target: T21, PEK (Homo sapiens, UniProt Q9NZJ5); assay: IMAP Assay
T21 construct: purchased Carna Biosciences

CRIK = target: T22, CRIK (Homo sapiens, UniProt O14578); assay: mobility shift assay
T22 construct: purchased Carna Biosciences

CDK7/CycHMAT1 = CDK7/CycHMAT1 (Homo sapiens, UniProt P50613); assay: IC50 by mobility shift assay; details: Table 2, mobility shift assay; read-out: IC50 (μM), Kinase CDK7/CycH/MAT1
Source text: (§1) The compounds produced in Production Examples described above were each assessed for its inhibitory activity against CDK7, PIM2, and PI3K by mobility shift assay. In addition, a combination showing the highest inhibitory activity against each kinase is indicated by italics.

PIM2 = PIM2 (Homo sapiens, UniProt Q9P1W9); assay: IC50 by mobility shift assay; details: Table 2, mobility shift assay; read-out: IC50 (μM), Kinase PIM2
Source text: as §1

PDHK2 = target: T23, PDHK2 (Homo sapiens, UniProt Q15119); assay: mobility shift assay
T23 construct: purchased Carna Biosciences

RSK2 = target: T24, RSK2 (Homo sapiens, UniProt P51812); assay: mobility shift assay
T24 construct: purchased Carna Biosciences

JNK3 = target: T25, JNK3 (Homo sapiens, UniProt P53779); assay: mobility shift assay
T25 construct: purchased Carna Biosciences

EPHB3 = target: T26, EPHB3 (Homo sapiens, UniProt P54753); assay: mobility shift assay
T26 construct: purchased Carna Biosciences

MUSK = target: T27, MUSK (Homo sapiens, UniProt O15146); assay: mobility shift assay
T27 construct: purchased Carna Biosciences

FGFR1(V561M) = target: T28, FGFR1(V561M) (Homo sapiens, UniProt P11362, V561M); assay: mobility shift assay
T28 construct: purchased Carna Biosciences

Etk2 = target: T29, Etk2 (Homo sapiens, UniProt P28482); assay: mobility shift assay
T29 construct: purchased Carna Biosciences

RON = target: T30, RON (Homo sapiens, UniProt Q04912); assay: mobility shift assay
T30 construct: purchased Carna Biosciences

MNK1 = target: T31, MNK1 (Homo sapiens, UniProt Q9BUB5); assay: mobility shift assay
T31 construct: purchased Carna Biosciences

FLT4 = target: T32, FLT4 (Homo sapiens, UniProt P35916); assay: mobility shift assay
T32 construct: purchased Carna Biosciences

MAP2K6_Cascade = target: T33, MAP2K6_Cascade (Homo sapiens, UniProt P52564); assay: mobility shift assay
T33 construct: purchased Carna Biosciences

EPHB1 = target: T34, EPHB1 (Homo sapiens, UniProt P54762); assay: mobility shift assay
T34 construct: purchased Carna Biosciences

EPHA1 = target: T35, EPHA1 (Homo sapiens, UniProt P21709); assay: mobility shift assay
T35 construct: purchased Carna Biosciences

PKACβ = target: T36, PKACβ (Homo sapiens, UniProt P22694); assay: mobility shift assay
T36 construct: purchased Carna Biosciences

T10 sequence (P10721 26-976 T670I): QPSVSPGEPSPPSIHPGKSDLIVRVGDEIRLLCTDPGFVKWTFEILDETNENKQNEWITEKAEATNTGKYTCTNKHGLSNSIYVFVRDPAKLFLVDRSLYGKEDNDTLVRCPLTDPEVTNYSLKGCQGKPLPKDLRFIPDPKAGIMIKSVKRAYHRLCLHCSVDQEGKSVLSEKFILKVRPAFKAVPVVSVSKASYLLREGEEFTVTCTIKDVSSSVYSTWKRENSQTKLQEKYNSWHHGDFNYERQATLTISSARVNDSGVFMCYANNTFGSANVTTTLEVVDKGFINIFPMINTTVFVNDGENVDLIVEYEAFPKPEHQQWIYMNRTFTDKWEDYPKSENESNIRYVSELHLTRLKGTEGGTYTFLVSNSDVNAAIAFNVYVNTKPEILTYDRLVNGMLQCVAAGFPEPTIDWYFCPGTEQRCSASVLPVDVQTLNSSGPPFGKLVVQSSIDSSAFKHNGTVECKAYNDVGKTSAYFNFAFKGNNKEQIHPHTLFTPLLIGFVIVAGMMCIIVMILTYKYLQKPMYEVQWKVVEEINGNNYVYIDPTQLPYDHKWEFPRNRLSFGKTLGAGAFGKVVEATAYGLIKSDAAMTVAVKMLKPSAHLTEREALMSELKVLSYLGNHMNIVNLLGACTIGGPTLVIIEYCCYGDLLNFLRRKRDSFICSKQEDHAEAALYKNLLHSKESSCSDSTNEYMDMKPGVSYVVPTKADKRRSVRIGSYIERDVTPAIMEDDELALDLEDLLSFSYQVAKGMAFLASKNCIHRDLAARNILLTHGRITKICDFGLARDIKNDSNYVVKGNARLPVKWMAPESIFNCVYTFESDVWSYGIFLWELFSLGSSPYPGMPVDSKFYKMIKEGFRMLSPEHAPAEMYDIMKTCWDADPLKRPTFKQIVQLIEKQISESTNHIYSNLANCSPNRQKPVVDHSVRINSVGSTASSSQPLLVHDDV
T2 sequence (Q96BR1 whole entry): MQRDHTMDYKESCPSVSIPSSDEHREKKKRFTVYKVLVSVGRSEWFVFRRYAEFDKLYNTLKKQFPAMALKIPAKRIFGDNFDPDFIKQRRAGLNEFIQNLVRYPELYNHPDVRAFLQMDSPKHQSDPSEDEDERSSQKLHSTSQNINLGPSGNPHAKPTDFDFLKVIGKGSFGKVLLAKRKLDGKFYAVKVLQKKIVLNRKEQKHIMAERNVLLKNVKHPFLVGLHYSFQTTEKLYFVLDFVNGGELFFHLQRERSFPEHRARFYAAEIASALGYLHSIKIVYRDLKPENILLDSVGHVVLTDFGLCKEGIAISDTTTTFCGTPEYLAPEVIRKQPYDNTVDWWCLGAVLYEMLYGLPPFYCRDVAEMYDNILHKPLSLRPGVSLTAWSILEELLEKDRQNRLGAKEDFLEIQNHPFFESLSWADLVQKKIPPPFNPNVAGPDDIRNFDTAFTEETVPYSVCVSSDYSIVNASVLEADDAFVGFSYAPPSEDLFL
T8 sequence (Q9UK32 whole entry): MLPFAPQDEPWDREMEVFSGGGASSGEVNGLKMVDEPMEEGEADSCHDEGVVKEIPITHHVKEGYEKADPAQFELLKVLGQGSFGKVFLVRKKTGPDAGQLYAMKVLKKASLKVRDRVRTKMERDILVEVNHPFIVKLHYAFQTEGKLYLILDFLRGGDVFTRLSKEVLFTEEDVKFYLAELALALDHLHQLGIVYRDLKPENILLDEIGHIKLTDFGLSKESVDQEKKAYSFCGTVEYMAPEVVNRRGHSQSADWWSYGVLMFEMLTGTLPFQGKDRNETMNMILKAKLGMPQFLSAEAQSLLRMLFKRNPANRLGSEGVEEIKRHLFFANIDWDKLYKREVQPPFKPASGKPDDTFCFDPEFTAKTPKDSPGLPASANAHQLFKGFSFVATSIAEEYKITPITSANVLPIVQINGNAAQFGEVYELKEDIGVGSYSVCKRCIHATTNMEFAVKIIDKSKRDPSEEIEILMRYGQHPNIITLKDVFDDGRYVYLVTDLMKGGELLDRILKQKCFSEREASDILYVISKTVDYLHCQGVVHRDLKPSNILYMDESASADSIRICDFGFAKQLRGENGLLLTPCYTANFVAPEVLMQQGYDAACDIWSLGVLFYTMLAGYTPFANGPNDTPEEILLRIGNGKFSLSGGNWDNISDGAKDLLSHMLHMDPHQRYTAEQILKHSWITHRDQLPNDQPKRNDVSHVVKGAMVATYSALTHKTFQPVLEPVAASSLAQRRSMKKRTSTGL
T30 sequence (Q04912 25-1400): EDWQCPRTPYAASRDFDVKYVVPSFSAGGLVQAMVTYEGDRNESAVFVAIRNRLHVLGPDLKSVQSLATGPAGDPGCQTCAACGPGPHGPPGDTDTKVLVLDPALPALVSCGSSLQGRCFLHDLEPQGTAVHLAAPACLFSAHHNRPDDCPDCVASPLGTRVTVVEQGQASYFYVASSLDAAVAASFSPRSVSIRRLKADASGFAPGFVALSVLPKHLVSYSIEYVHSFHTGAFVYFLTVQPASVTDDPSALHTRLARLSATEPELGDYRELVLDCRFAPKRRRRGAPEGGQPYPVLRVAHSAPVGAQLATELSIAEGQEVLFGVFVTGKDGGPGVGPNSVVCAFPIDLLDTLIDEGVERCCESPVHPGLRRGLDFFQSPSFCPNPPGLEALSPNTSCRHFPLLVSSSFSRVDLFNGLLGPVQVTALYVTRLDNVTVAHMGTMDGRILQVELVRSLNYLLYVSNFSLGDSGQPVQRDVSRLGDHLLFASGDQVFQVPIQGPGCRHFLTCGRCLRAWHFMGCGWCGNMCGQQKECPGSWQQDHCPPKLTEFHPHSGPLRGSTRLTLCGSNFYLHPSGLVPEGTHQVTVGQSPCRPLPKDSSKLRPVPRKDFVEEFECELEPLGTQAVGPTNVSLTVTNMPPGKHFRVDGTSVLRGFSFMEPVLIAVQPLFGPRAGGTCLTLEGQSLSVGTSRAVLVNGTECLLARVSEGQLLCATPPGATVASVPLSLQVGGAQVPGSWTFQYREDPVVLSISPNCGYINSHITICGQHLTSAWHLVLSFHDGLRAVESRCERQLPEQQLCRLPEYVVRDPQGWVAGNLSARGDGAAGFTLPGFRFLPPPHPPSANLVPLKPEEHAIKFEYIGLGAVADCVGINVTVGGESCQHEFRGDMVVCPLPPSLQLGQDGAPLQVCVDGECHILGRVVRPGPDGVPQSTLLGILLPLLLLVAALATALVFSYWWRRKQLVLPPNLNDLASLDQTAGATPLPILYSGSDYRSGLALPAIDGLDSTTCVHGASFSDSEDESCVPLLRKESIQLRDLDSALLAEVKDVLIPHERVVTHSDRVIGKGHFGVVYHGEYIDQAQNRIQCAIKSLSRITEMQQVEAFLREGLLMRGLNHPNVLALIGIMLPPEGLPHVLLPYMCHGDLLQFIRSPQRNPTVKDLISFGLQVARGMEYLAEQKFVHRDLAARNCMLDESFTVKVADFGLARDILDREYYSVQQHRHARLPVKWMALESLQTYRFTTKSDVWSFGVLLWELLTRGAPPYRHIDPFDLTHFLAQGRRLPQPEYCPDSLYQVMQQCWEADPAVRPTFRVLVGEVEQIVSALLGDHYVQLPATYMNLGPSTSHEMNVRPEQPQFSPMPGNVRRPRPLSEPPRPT
T21 sequence (Q9NZJ5 30-1116): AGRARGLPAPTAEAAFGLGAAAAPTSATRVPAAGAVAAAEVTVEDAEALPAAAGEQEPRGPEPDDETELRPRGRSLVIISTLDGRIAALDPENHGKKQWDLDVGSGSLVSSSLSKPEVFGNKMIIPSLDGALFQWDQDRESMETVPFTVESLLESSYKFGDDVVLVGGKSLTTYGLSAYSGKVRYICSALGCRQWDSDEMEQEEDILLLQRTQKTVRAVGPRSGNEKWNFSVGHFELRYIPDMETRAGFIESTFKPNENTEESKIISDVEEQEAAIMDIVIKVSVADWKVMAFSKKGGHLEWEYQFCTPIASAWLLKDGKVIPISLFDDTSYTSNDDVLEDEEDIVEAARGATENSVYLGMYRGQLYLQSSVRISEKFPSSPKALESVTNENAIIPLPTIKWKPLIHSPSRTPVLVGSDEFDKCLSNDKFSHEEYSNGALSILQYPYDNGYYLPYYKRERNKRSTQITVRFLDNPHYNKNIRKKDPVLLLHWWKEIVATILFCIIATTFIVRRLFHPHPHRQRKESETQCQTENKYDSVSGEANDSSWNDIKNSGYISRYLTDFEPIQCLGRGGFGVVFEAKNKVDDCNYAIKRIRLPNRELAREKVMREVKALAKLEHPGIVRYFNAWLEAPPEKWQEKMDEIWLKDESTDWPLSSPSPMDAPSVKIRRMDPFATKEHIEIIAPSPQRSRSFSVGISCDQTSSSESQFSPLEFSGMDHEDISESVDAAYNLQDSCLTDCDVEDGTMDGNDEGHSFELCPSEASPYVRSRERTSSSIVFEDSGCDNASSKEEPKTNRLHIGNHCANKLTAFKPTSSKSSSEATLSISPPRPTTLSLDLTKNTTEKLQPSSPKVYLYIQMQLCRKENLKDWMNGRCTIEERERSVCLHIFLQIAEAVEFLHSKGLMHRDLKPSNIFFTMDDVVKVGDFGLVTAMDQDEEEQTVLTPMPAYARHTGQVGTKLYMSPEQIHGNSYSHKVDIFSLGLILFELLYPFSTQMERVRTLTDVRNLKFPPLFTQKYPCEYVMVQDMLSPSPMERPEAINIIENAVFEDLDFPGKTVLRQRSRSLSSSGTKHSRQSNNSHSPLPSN
Chain of PIM2 (Q9P1W9 whole entry): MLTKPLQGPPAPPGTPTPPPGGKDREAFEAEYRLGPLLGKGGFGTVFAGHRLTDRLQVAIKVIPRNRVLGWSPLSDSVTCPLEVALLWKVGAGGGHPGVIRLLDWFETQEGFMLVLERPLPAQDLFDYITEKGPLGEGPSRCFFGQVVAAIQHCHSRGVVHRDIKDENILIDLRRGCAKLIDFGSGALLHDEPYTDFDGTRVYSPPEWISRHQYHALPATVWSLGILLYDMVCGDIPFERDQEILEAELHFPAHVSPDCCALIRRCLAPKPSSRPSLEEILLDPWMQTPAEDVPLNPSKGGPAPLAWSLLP

C[C@@H]1CC[C@H]2C(C)(C)CCC[C@]2(C)c2c1oc1c(C=O)c(O)c(O)cc21 [LG-1, liphagal]
inhibition at 10 µM (NDR2): -4.9%
inhibition at 10 µM (SGK3): -0.5%
inhibition at 10 µM (AKT3): 3.3%
inhibition at 10 µM (p38α): 0.1%
inhibition at 10 µM (p38B): 9.1%
inhibition at 10 µM (MLK2_Cascade): 8.3%
inhibition at 10 µM (CK1γ2): -2.8%
inhibition at 10 µM (RSK4): 7.4%
inhibition at 10 µM (MST 4): 80.3%
inhibition at 10 µM (KIT(T670I)): 5.4%
inhibition at 10 µM (MSK2): -11.7%
% Inhibition (MNK): 0.0%
inhibition at 10 µM (CDK3/CycE1): 40.1%
% Inhibition (MAP3K4_Cascade): 62.9%
inhibition at 10 µM (EPHA8): 0.8%
inhibition at 10 µM (ALK(F1174L)): -1.8%
inhibition at 10 µM (PKACα): 2.3%
inhibition at 10 µM (DDR2): 42.5%
inhibition at 10 µM (NEK6): 65.4%
inhibition at 10 µM (PDGF Ru(DB42V)): 1.5%
inhibition at 10 µM (HER4): 17.9%
inhibition at 10 µM (PIM 1): 50.3%
inhibition at 10 µM (PEK): 13.2%
inhibition at 10 µM (CRIK): -0.8%
IC50 (CDK7/CycHMAT1): 1.27 µM
IC50 (PIM2): 5.31 µM
inhibition at 10 µM (PDHK2): 47.2%
inhibition at 10 µM (RSK2): 14.5%
inhibition at 10 µM (JNK3): -5.8%
inhibition at 10 µM (EPHB3): 1.7%
inhibition at 10 µM (MUSK): -8.4%
inhibition at 10 µM (FGFR1(V561M)): -12.6%
inhibition at 10 µM (Etk2): 6.2%
inhibition at 10 µM (RON): 7.8%
inhibition at 10 µM (MNK1): 5.3%
inhibition at 10 µM (FLT4): 2.1%
inhibition at 10 µM (MAP2K6_Cascade): 19.9%
inhibition at 10 µM (EPHB1): 1.7%
inhibition at 10 µM (EPHA1): 0.5%
inhibition at 10 µM (PKACβ): 13.9%

From patent US11691980B2, “Liphagal analog and multi-targeted kinase inhibitor containing liphagal or analog thereof” (TOHOKU UNIVERSITY, priority 2017, dated 2023)
